Here are results for eight compounds from DBAASP.

Among the test systems are Staphylococcus aureus; Escherichia coli W3110; Enterococcus faecalis; Escherichia coli K91BK; Aspergillus fumigatus; Pasteurella multocida; Bibersteinia trehalosi; Klebsiella pneumoniae; Escherichia coli O111.
Assay in all cases: ≥ marks a high value that may be exact or a test limit, other limits are often not marked, values filed in µg/mL are converted to µM
The test system of assay [1] is Streptococcus sanguinis NY101.
The subject of assay [2] is Pseudomonas aeruginosa PAK.
Assay [3] relates to Streptococcus mitis ATCC 903.
Assay [4] concerns Streptococcus mutans UA159.
Assay [5] relates to Streptococcus gordonii Challis DL1.
For assay [6], the system named is Streptococcus sobrinus ATCC 33478.
The subject of assay [7] is Staphylococcus aureus FDA 209P.
Assay [8] concerns Escherichia coli ATCC 25922.
For assay [9], the system named is Bacillus subtilis var. niger ATCC 9372.
Assay [10] has as its system Bacillus anthracis Sterne 34F2.
In assay [11] the test system is Salmonella enterica subsp. arizonae.
Assay [12] has as its system Mannheimia haemolytica Serovar 2.
Assay [13] deals with Mannheimia haemolytica Serovar 1.
Assay [14] concerns Pseudomonas aeruginosa PAO1.
Assay [15] concerns Mannheimia haemolytica Serovar 6.
The test system of assay [16] is Corynebacterium pseudotuberculosis ATCC 19410.
Assay [17] concerns Bacillus subtilis ATCC 6633.

≈ marks a conversion by molar mass, not a printed value.

What is called MIC is the lowest concentration found to suppress growth. A low value points to inhibition by little substance. For `NC(=O)CC[C@H](NC(=O)[C@H](Cc1c[nH]c2ccccc12)NC(=O)[C@H](Cc1c[nH]c2ccccc12)NC(=O)[C@H](CC(N)=O)NC(=O)[C@H](Cc1ccc(O)cc1)NC(=O)[C@H](Cc1c[nH]c2ccccc12)NC(=O)[C@@H](N)Cc1c[nH]c2ccccc12)C(=O)N[C@@H](CC(=O)O)C(=O)N[C@@H](Cc1c[nH]c2ccccc12)C(N)=O` [WWYNWWQDW], the minimal inhibitory concentration (MIC) in assay [1] is at least 340 µM; in [2], at least 340 µM; against Staphylococcus aureus, above 340 µM; in [3] it was at least 340 µM; in [4] it was at least 340 µM; with Escherichia coli W3110, at least 340 µM. Further, the MIC (in assay [5]; in assay [6]; against Enterococcus faecalis) was at least 340 µM in each case.
With `CC[C@H](C)[C@H](NC(=O)[C@H](Cc1ccccc1)NC(=O)[C@H](Cc1cnc[nH]1)NC(=O)[C@H](CCCCN)NC(=O)[C@@H](NC(=O)[C@@H](N)Cc1ccccc1)[C@@H](C)CC)C(=O)N[C@@H](Cc1cnc[nH]1)C(=O)N[C@@H](CCCN=C(N)N)C(=O)N[C@@H](Cc1ccccc1)C(N)=O` [FIKHFIHRF], the MIC in assay [1] was at least 100 µM; in assay [2], at least 402 µM; against Staphylococcus aureus it was above 402 µM; in assay [3] it was at least 402 µM; in assay [4], at least 100 µM; against Escherichia coli W3110 it was at least 402 µM. The minimum inhibitory concentration (MIC) was at least 402 µM in assay [5], at least 100 µM in assay [6] and at least 402 µM in the assay with Enterococcus faecalis.
As for `CC[C@H](C)[C@H](NC(=O)CN)C(=O)N[C@@H](Cc1ccccc1)C(=O)N[C@H](C(=O)N[C@@H](CC(C)C)C(=O)N[C@@H](Cc1ccccc1)C(=O)N[C@@H](CCCCN)C(=O)NCC(=O)N[C@@H](C)C(=O)N[C@@H](C)C(=O)N[C@@H](CCCCN)C(=O)N[C@@H](CC(C)C)C(=O)N[C@@H](CC(C)C)C(=O)NCC(=O)N[C@@H](CCCCN)C(=O)N[C@H](C(=O)N[C@@H](CC(C)C)C(=O)N[C@@H](C)C(=O)N[C@@H](CCCCN)C(=O)N[C@@H](CCC(=O)O)C(=O)N[C@@H](C)C(=O)NCC(=O)N[C@@H](CCCCN)C(=O)N[C@H](C(=O)NCC(=O)N[C@@H](CC(C)C)C(=O)N[C@@H](CCC(=O)O)C(=O)N[C@@H](CC(C)C)C(=O)N[C@@H](CCSC)C(=O)N[C@@H](C)C(=O)N[C@H]1CSSC[C@@H](C(=O)O)NC(=O)[C@H](CCC(N)=O)NC(=O)[C@H](CC(N)=O)NC(=O)[C@H]([C@@H](C)O)NC(=O)[C@H](C(C)C)NC(=O)[C@H](CCCCN)NC1=O)[C@@H](C)O)[C@@H](C)O)[C@@H](C)O` [GIFTLFKGAAKLLGKTLAKEAGKTGLELMACKVTNQC], the values for the MIC in assay [7] and in [8] were 4.4 µM (≈ 17 µg/mL) and 2.8 µM (≈ 10.8 µg/mL), respectively.
On to `CC[C@H](C)[C@H](NC(=O)[C@H](CC(N)=O)NC(=O)[C@H](CCCCN)NC(C)=O)C(=O)N[C@@H](CCCN=C(N)N)C(=O)N[C@@H](CCCN=C(N)N)C(=O)N[C@H](C(=O)N[C@H](C(=O)N[C@@H](CCCN=C(N)N)C(=O)N[C@@H](CCCCN)C(=O)N[C@H](C(=O)N[C@H](C(=O)N[C@@H](Cc1cnc[nH]1)C(=O)N[C@H](C(=O)N[C@H](C(=O)N[C@@H](CCCCN)C(=O)N[C@@H](CCCCN)C(=O)N[C@@H](Cc1ccc(O)cc1)C(=O)NCC(N)=O)[C@@H](C)CC)[C@@H](C)CC)[C@@H](C)CC)[C@@H](C)CC)[C@@H](C)CC)[C@@H](C)CC` [KNIRRIIRKIIHIIKKYG], for which the values for the minimum inhibitory concentration (MIC) (in [9]; in [10]; against Escherichia coli K91BK) were 0.93 µM (≈ 2.14 µg/mL), 6.25 µM (≈ 14.4 µg/mL) and at least 100 µM, respectively.
As for `CC[C@H](C)[C@H](NC(=O)[C@H](Cc1cnc[nH]1)NC(=O)[C@@H](NC(=O)[C@@H](NC(=O)[C@H](CCCCN)NC(=O)[C@H](CCCN=C(N)N)NC(=O)[C@@H](NC(=O)[C@@H](NC(=O)[C@@H](N)CCCN=C(N)N)[C@@H](C)CC)[C@@H](C)CC)[C@@H](C)CC)[C@@H](C)CC)C(=O)N[C@H](C(=O)N[C@@H](CCCCN)C(N)=O)[C@@H](C)CC` [RIIRKIIHIIK], the MIC in assay [11] is 14.3 µM (≈ 20 µg/mL); against Staphylococcus aureus, above 14.3 µM; in [12] it was 7.13 µM (≈ 9.99 µg/mL); in the assay with Aspergillus fumigatus it was 28.5 µM (≈ 40 µg/mL); in [13] it was 14.3 µM (≈ 20 µg/mL); in the assay on Pasteurella multocida it was 14.3 µM (≈ 20 µg/mL). In addition, the MIC in assay [14] turned out to be 3.56 µM (≈ 5 µg/mL); against Bibersteinia trehalosi, 14.3 µM (≈ 20 µg/mL); against Klebsiella pneumoniae it was 9.48 µM (≈ 13.3 µg/mL); in [15], 7.13 µM (≈ 9.99 µg/mL); in assay [16] it was 14.3 µM (≈ 20 µg/mL).
`CC[C@H](C)[C@H](NC(=O)[C@@H](NC(=O)[C@H](Cc1cnc[nH]1)NC(=O)[C@@H](NC(=O)[C@@H](NC(=O)[C@H](CCCCN)NC(=O)[C@H](CCCN=C(N)N)NC(=O)[C@@H](NC(=O)[C@@H](NC(=O)[C@@H](N)CCCN=C(N)N)[C@@H](C)CC)[C@@H](C)CC)[C@@H](C)CC)[C@@H](C)CC)[C@@H](C)CC)C(N)=O` [RIIRKIIHII]: the MIC in [11] was 15.7 µM (≈ 20 µg/mL); with Staphylococcus aureus, above 15.7 µM; in [12] it was 10.4 µM (≈ 13.3 µg/mL); against Aspergillus fumigatus, 31.4 µM (≈ 40 µg/mL); in assay [13], 15.7 µM (≈ 20 µg/mL); against Pasteurella multocida, 15.7 µM (≈ 20 µg/mL). The minimal inhibitory concentration (MIC) in assay [14] is 7.85 µM (≈ 9.99 µg/mL); in the assay with Bibersteinia trehalosi it was 15.7 µM (≈ 20 µg/mL); in the assay with Klebsiella pneumoniae, 9.18 µM (≈ 11.7 µg/mL); in assay [15], 15.7 µM (≈ 20 µg/mL); in assay [16], 15.7 µM (≈ 20 µg/mL).
Turning to `CC(=O)N[C@@H](CCCCN)C(=O)N[C@@H](CCCCN)C(=O)N[C@@H](Cc1c[nH]c2ccccc12)C(=O)N[C@@H](CCCCN)C(=O)N[C@@H](CCCCN)C(=O)N[C@@H](Cc1c[nH]c2ccccc12)C(=O)N[C@@H](CCCCN)C(=O)N[C@@H](CCCCN)C(=O)N[C@@H](Cc1c[nH]c2ccccc12)C(=O)N[C@@H](CCCCN)C(=O)N[C@@H](CCCCN)C(N)=O` [KKWKKWKKWKK], the MIC in [9] was at least 50 µM; in assay [10], at least 100 µM; against Escherichia coli K91BK it was at least 100 µM.
As to `CC[C@H](C)[C@H](NC(=O)CNC(=O)[C@H](CCC(=O)O)NC(=O)[C@H](Cc1c[nH]c2ccccc12)NC(=O)[C@@H](NC(=O)[C@@H](N)CO)[C@@H](C)CC)C(=O)N[C@@H](CCCCN)C(=O)N[C@@H](CC(N)=O)C(=O)N[C@@H](C)C(=O)NCC(=O)N[C@@H](CCCCN)C(=O)NCC(=O)N[C@@H](Cc1ccccc1)C(=O)N[C@@H](CC(C)C)C(=O)N[C@H](C(=O)N[C@@H](CO)C(=O)N[C@H](C(=O)N[C@@H](CC(C)C)C(=O)N[C@@H](CC(=O)O)C(=O)N[C@@H](CCCCN)C(=O)N[C@H](C(=O)N[C@@H](CCCN=C(N)N)C(=O)N[C@H]1CSSC[C@@H](C(=O)N[C@@H](CC(N)=O)C(=O)N2CCC[C@H]2C(=O)O)NC(=O)CNC(=O)CNC(=O)[C@H](C)NC(=O)[C@H](C(C)C)NC(=O)[C@H](CCCCN)NC1=O)C(C)C)[C@@H](C)CC)C(C)C` [SIWEGIKNAGKGFLVSILDKVRCKVAGGCNP], the minimal inhibitory concentration (MIC) in [7] was determined as 3.01 µM (≈ 9.79 µg/mL); in [17], 19.6 µM (≈ 64 µg/mL); in assay [8] it was 3.01 µM (≈ 9.79 µg/mL); against Escherichia coli O111, 6.01 µM (≈ 19.6 µg/mL).
